Source: PubChem BioAssay (NCI)
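Each compound was tested at five concentrations against cells in 96-well plates for 48 hours. GI50: concentration for 50% inhibition of growth. TGI: total growth inhibition.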

What was measured:
Experiment in all cases: NCI tumour cell line growth inhibition, 48 h
[1] = test system: UACC-257 melanoma
[2] = test system: HOP-62 NSCLC
[3] = test system: SF-268 CNS
[4] = test system: MOLT-4 leukemia
[5] = test system: SF-539 CNS
[6] = test system: 786-0 renal
[7] = test system: OVCAR-4 ovarian
[8] = test system: NCI-H460 lung
[9] = test system: SW-620 colon
[10] = test system: DMS 114 small cell lung
[11] = test system: HCT-116 colon
[12] = test system: SK-MEL-28 melanoma
[13] = test system: CAKI-1 renal
[14] = test system: A549 NSCLC
[15] = test system: NCI-H226 lung
[16] = test system: HT29 colon
[17] = test system: SN12C renal
[18] = test system: M14 melanoma
[19] = test system: DLD-1 colon
[20] = test system: KM20L2 colon
[21] = test system: LOX IMVI melanoma
[22] = test system: HCT-15 colon
[23] = test system: KM12 colon
[24] = test system: OVCAR-5 ovarian
[25] = test system: NCI-H522 lung
[26] = test system: A498 renal
[27] = test system: SF-295 CNS
[28] = test system: K-562 leukemia
[29] = test system: SK-MEL-2 melanoma
[30] = test system: SR leukemia
[31] = test system: SNB-75 CNS
[32] = test system: DMS 273 small cell lung
[33] = test system: UACC-62 melanoma
[34] = test system: U251 CNS
[35] = test system: OVCAR-8 ovarian
[36] = test system: UO-31 renal
[37] = test system: NCI-H23 lung
[38] = test system: HL-60(TB) leukemia
[39] = test system: LXFL 529 NSCLC
[40] = test system: SNB-19 CNS
[41] = test system: SNB-78 CNS
[42] = test system: TK-10 renal
[43] = test system: COLO 205 colon
[44] = test system: RPMI-8226 leukemia
[45] = test system: OVCAR-3 ovarian
[46] = test system: HCC-2998 colon
[47] = test system: EKVX NSCLC
[48] = test system: CCRF-CEM leukemia
[49] = test system: ACHN renal
[50] = test system: IGROV1 ovarian
[51] = test system: SK-MEL-5 melanoma
[52] = test system: HOP-92 NSCLC
[53] = test system: SK-OV-3 ovarian
[54] = test system: RXF 393 renal
[55] = test system: MALME-3M melanoma

SMILES: COC(=O)CCSC(=O)Nc1ccccc1Cl
- TGI [1]: > 100 µM
- TGI [2]: > 100 µM
- TGI [3]: > 100 µM
- TGI [4]: > 100 µM
- TGI [5]: > 100 µM
- TGI [6]: > 100 µM
- TGI [7]: > 100 µM
- TGI [8]: > 100 µM
- TGI [9]: > 100 µM
- TGI [10]: > 100 µM
- TGI [11]: > 100 µM
- TGI [12]: > 100 µM
- TGI [13]: > 100 µM
- TGI [14]: > 100 µM
- TGI [15]: > 100 µM
- TGI [16]: > 100 µM
- TGI [17]: > 100 µM
- TGI [18]: > 100 µM
- TGI [19]: > 100 µM
- TGI [20]: > 100 µM
- TGI [21]: > 100 µM
- TGI [22]: > 100 µM
- TGI [23]: > 100 µM
- TGI [24]: > 100 µM
- TGI [25]: 28.1 µM
- TGI [26]: > 100 µM
- TGI [27]: > 100 µM
- TGI [28]: > 100 µM
- TGI [29]: > 100 µM
- TGI [30]: > 100 µM
- TGI [31]: > 100 µM
- TGI [32]: > 100 µM
- TGI [33]: > 100 µM
- TGI [34]: > 100 µM
- TGI [35]: > 100 µM
- TGI [36]: > 100 µM
- TGI [37]: > 100 µM
- TGI [38]: > 100 µM
- TGI [39]: > 100 µM
- TGI [40]: > 100 µM
- TGI [41]: > 100 µM
- TGI [42]: > 100 µM
- TGI [43]: > 100 µM
- TGI [44]: > 100 µM
- TGI [45]: > 100 µM
- TGI [46]: > 100 µM
- TGI [47]: > 100 µM
- TGI [48]: > 100 µM
- TGI [49]: > 100 µM

SMILES: O=c1cccccc1[O-].O=c1cccccc1[O-].O=c1cccccc1[O-].[Dy+3]
- TGI [1]: > 100 µM
- GI50 [2]: 33 µM
- TGI [2]: 99.9 µM
- TGI [3]: > 100 µM
- TGI [4]: 46.2 µM
- GI50 [5]: 17.9 µM
- TGI [5]: 78 µM
- TGI [6]: > 100 µM
- TGI [7]: > 100 µM
- TGI [8]: > 100 µM
- TGI [9]: > 100 µM
- TGI [11]: 41.4 µM
- TGI [50]: > 100 µM
- TGI [12]: > 100 µM
- TGI [51]: 72.3 µM
- TGI [13]: > 100 µM
- TGI [14]: > 100 µM
- TGI [15]: > 100 µM
- TGI [16]: > 100 µM
- GI50 [17]: 17.7 µM
- TGI [17]: > 100 µM
- TGI [18]: > 100 µM
- GI50 [19]: 16.9 µM
- TGI [19]: > 100 µM
- GI50 [20]: 18.4 µM
- TGI [20]: > 100 µM
- TGI [21]: > 100 µM
- TGI [22]: > 100 µM
- TGI [52]: > 100 µM
- TGI [23]: > 100 µM
- TGI [24]: > 100 µM
- TGI [25]: > 100 µM
- GI50 [26]: 80.7 µM
- TGI [26]: > 100 µM
- TGI [27]: > 100 µM
- TGI [28]: > 100 µM
- TGI [29]: > 100 µM
- TGI [53]: 98.3 µM
- TGI [31]: 52.1 µM
- GI50 [32]: 9.28 µM
- TGI [32]: > 100 µM
- TGI [33]: > 100 µM
- GI50 [34]: 24.8 µM
- TGI [34]: > 100 µM
- TGI [35]: 97.6 µM
- TGI [54]: 79 µM
- TGI [36]: > 100 µM
- TGI [37]: 66.4 µM
- TGI [38]: 54.3 µM
- TGI [55]: > 100 µM
- TGI [40]: > 100 µM
- GI50 [41]: 15.3 µM
- TGI [41]: > 100 µM
- TGI [42]: > 100 µM
- TGI [44]: 76.2 µM
- TGI [45]: 41.1 µM
- TGI [46]: > 100 µM
- TGI [47]: > 100 µM
- TGI [48]: 55.2 µM
- TGI [49]: > 100 µM
